From EP0103381B1, “Substituted anthra(1,9-cd)pyrazol-6(2H)-ones” (WARNER-LAMBERT COMPANY, priority 1982, dated 1984)

How the values were obtained:
Bacillus subtilis = experiment: agar plate paper-disc inhibition zone screening; type: cell-based; conditions: read-out: Inhibition Zone Diameter mm (Dose mg/ml) B. Subtilis; for zone of inhibition at 3000 µg/mL: Dose 3.0 mg/ml; for zone of inhibition at 1000 µg/mL: Dose 1.0 mg/ml
Procedure: (§1) The bacterial and yeast isolates are maintained in agar slants or in liquid media, hereby designated as inoculum media. The cultures are transferred at regular intervals in such media. (See Table for the corresponding inoculum media of each culture.) The organisms are generally transferred on to agar slants or liquid inoculum media and incubated overnight (18-20 hours): 37°C for the bacterial isolates and 28°C for the fungal cultures.
(§2) The microbial cells from the overnight agar slants are then scraped off and suspended in saline solution (0.85% NaCI). The microbial concentrations are adjusted to a light transmittancy of 20-35%, Junior Coleman Spectrophotometer (555 M). For the organisms that are maintained in liquid media, an aliquot of the culture suspension is simply diluted with saline to 20-35% light transmittancy.
(§3) The above microbial suspension serve as inocula for the assay plates. Thus, 0.16-10 ml (see Table for exact amount) are used to inoculate 100 ml of the molten-agar assay medium.
(§4) Stainless steel frames, 12.3 x 25.3 cm (ID) and glass plates, 15.3 x 31.7 cm are used to make the test trays. The frames are attached to the plates with tape at each end and the inner edges sealed with 2% agar. Twenty five ml of inoculated assay medium is spread evenly on each tray and allowed to solidify. The trays are covered, inverted, and refrigerated until used.
(§5) The compounds or samples to be tested are dissolved in suitable solvents, e.g., alcohols, dimethylsulfoxide, or N,N-dimethylformamide. The samples are generally dissolved so that the final concentration of the solvent is <10%.^* The compounds are tested at different concentrations: 3,000; 1,000; 500; 100; and 10 mcg/ml. Paper discs (12.7 mm diameter) are placed on the agar trays with forceps, then 0.08 ml of the dissolved compound is pipetted onto each disc using a 0.2 ml pipette.
(§6) The disked agar trays are incubated overnight (18-20 hours) at 37°C for the bacterial cultures and 28°C for the yeasts. The Penicillium avellaneium tray is incubated for at least […] since it is a slower- growing organism.
(§7) Active compounds show a zone of inhibition around the disc. The diameter of the zone is measured in mm. The zone diameter of active compounds ranges from a minimum of 13.5 mm to as high as 60 mm. The size of the zone diameter generally reflects the activity of the compound: the larger the zone the greater the activity.

Streptococcus faecalis = experiment: agar plate paper-disc inhibition zone screening; type: cell-based; conditions: Enterococcus faecalis; Dose 3.0 mg/ml; read-out: Inhibition Zone Diameter mm (Dose mg/ml) S. Faecalis
Procedure: as §1, §2, §3, §4, §5, §6, §7

Escherichia coli = experiment: agar plate paper-disc inhibition zone screening; type: cell-based; conditions: read-out: Inhibition Zone Diameter mm (Dose mg/ml) E. Coli; for zone of inhibition at 3000 µg/mL: Dose 3.0 mg/ml; for zone of inhibition at 500 µg/mL: Dose 0.5 mg/ml
Procedure: as §1, §2, §3, §4, §5, §6, §7

Aerobacter aerogenes = experiment: agar plate paper-disc inhibition zone screening; type: cell-based; conditions: Klebsiella aerogenes, read-out: Inhibition Zone Diameter mm (Dose mg/ml) A. Aerogenes; for zone of inhibition at 3000 µg/mL: Dose 3.0 mg/ml; for zone of inhibition at 1000 µg/mL: Dose 1.0 mg/ml; for zone of inhibition at 500 µg/mL: Dose 0.5 mg/ml
Procedure: as §1, §2, §3, §4, §5, §6, §7

Penicillium avellaneum = experiment: agar plate paper-disc inhibition zone screening; type: cell-based; conditions: Hamigera avellanea; Dose 3.0 mg/ml; read-out: Inhibition Zone Diameter mm (Dose mg/ml) P. Avellaneum
Procedure: The Penicillium avellaneum is grown for six days, at 28°C, on an agar medium. This is to allow sporulation of the culture. The organism is then harvested by scraping off the cells from the agar surface (mycelia and spores) and suspending them in saline solution containing 0.05% Tween 80.
The suspension is adjusted to a light transmittancy of 20%. One ml of this suspension is used to inoculate 100 ml of the molten-agar assay medium.
as §4, §5, §6, §7

[1] = tested on: lymphocytic leukemia P388; experiment: in vivo lymphocytic leukemia P388 test; parameters: species or system mice; conditions: Mus musculus, P388, ip, 720 h, two single doses four days apart, read-out: T/C × 100 (Percent); for response vs control in vivo at 6.25 mg/kg: P388, Dose 6.25 mg/kg intraperitoneally; for response vs control in vivo at 12.5 mg/kg: P388, Dose 12.5 mg/kg intraperitoneally; for response vs control in vivo at 25 mg/kg: P388, Dose 25 mg/kg intraperitoneally; for response vs control in vivo at 100 mg/kg: P388, Dose 100 mg/kg intraperitoneally; for response vs control in vivo at 50 mg/kg: P388, Dose 50 mg/kg intraperitoneally; for response vs control in vivo at 0.78 mg/kg: P388, Dose 0.78 mg/kg intraperitoneally; for response vs control in vivo at 1.56 mg/kg: P388, Dose 1.56 mg/kg intraperitoneally
Procedure: The in vivo lymphocytic leukemia P388 test is carried out by the United States National Cancer Institute. The animals used are either male or female CD2F, mice. There are six to seven animals per test group. The tumor transplant is by intraperitoneal injection of dilute ascitic fluid containing cells of lymphocytic leukemia P388. The test compounds are administered intraperitoneally in two single doses with a four-day interval between doses at various dose levels following tumor inoculation. The animals are weighed and survivors are recorded on a regular basis for 30 days. A ratio of survival time for treated (T)/ control (C) animals is calculated. The criterion for efficacy is T/C x 100 > 125%. The positive control compound in this test is 1,4-dihydroxy-5,8-[bis[[2-[(2-hydroxyethyl)amino]-ethyl]amino]-9,10-anthracene- dione given at dosages ranging from 12.0 to 0.075 mg/kg. See Cancer Chemotherapy Reports, Part 3, 3, 1 (1972) for a comprehensive discussion of the protocol.

Row | Structure (SMILES) | zone of inhibition at 3000 µg/mL (Bacillus subtilis) [mm] | zone of inhibition at 3000 µg/mL (Streptococcus faecalis) [mm] | zone of inhibition at 3000 µg/mL (Escherichia coli) [mm] | zone of inhibition at 3000 µg/mL (Aerobacter aerogenes) [mm] | zone of inhibition at 3000 µg/mL (Penicillium avellaneum) [mm] | response vs control in vivo at 6.25 mg/kg [1] [%] | response vs control in vivo at 12.5 mg/kg [1] [%] | response vs control in vivo at 25 mg/kg [1] [%] | response vs control in vivo at 100 mg/kg [1] [%] | zone of inhibition at 1000 µg/mL (Bacillus subtilis) [mm] | response vs control in vivo at 50 mg/kg [1] [%] | zone of inhibition at 500 µg/mL (Escherichia coli) [mm] | zone of inhibition at 500 µg/mL (Aerobacter aerogenes) [mm] | response vs control in vivo at 1.56 mg/kg [1] [%] | further results
1 | NCCCCNc1ccc2c3c(nn2CCNCCO)-c2c(O)ccc(O)c2C(=O)c13 [Example 59, 5-[(4-Aminobutyl)amino]-7,10-dihydroxy-2-[2-[(2-hydroxyethyl)amino]ethyl]anthra[1,9-cd]pyrazol-6(2H)-one] | 0 | 0 | 15 | 16 | 0 | 131 | 139 | 150 | 172 |  |  |  |  |  | response vs control in vivo at 3.12 mg/kg ([1]; P388, Dose 3.12 mg/kg intraperitoneally): 130%
2 | NCCNc1ccc2c3c(nn2CCO)-c2c(O)ccc(O)c2C(=O)c13 [Example 37, 5-[(2-Aminoethyl)amino]-7,10-dihydroxy-2-(2-hydroxyethyl)anthra[1,9-cd]pyrazol-6(2H)-one] |  | 0 | 0 |  | 0 | 135 | 145 | 146 |  | 15 | 162 |  |  |  | zone of inhibition at 1000 µg/mL (Aerobacter aerogenes): 15 mm
3 | COCCn1nc2c3c(c(NCCNCCO)ccc31)C(=O)c1c(O)ccc(O)c1-2 [Example 76, 7,10-Dihydroxy-5-[[2-[(2-hydroxyethyl)amino]ethyl]amino]-2-(2-methoxyethyl)anthra[1,9-cd]pyrazol-6(2H)-one] | 14 | 0 |  | 14 | 0 |  | 127 | 127 | 139 |  | 135 |  |  |  | zone of inhibition at 1000 µg/mL (Escherichia coli; Dose 1.0 mg/ml): 14 mm
4 | CCN(CC)CC(O)Cn1nc2c3c(c(NCCNCCO)ccc31)C(=O)c1c(O)ccc(O)c1-2 (stereo not drawn) [Example 43, 2-[3-(Diethylamino)-2-hydroxypropyl]-7,10-dihydroxy-5-[[2-[(2-hydroxyethyl)amino]ethyl]amino]-anthra[1,9-cd]pyrazol-6(2H)-one] | 14 | 15 |  |  | 0 |  |  |  |  |  |  | 16 | 16 | 139 | response vs control in vivo at 0.78 mg/kg [1]: 132%
5 | CN(C)CCNc1ccc2c3c(nn2CCO)-c2c(O)ccc(O)c2C(=O)c13 [Example 39] | 0 | 14 | 0 |  | 0 |  | 124 | 153 | 225 |  | 180 |  | 15 |  | 
6 | CN(C)CCn1nc2c3c(c(NCCNCCO)ccc31)C(=O)c1c(O)ccc(O)c1-2 [Example 32] |  | 0 |  |  | 0 | 214 |  |  |  | 15 |  | 15 |  | 163 | zone of inhibition at 1000 µg/mL (Aerobacter aerogenes): 14 mm; response vs control in vivo at 0.78 mg/kg [1]: 161%
7 | CCN(CC)CC(O)Cn1nc2c3c(c(NCCN)ccc31)C(=O)c1c(O)ccc(O)c1-2 (stereo not drawn) [Example 45, 5-[(2-Aminoethyl)amino]-2-[3-(diethylamino)-2-hydroxypropyl]-7,10-dihydroxyanthra[1,9-cd]pyrazol-6(2H)-one] | 14 | 0 |  |  | 0 |  |  |  |  |  |  | 15 | 15 | 157 | response vs control in vivo at 0.39 mg/kg ([1]; P388, Dose 0.39 mg/kg intraperitoneally): 135%
8 | NCCn1nc2c3c(c(Cl)ccc31)C(=O)c1ccccc1-2 [H; Cl*; (CH2)2NH2, 2-(2-Aminoethyl)-5-chloroanthra[1,9-cd]pyrazol-6(2H)-one] | 14 | 0 |  |  | 16 |  |  |  |  |  |  |  |  |  | zone of inhibition at 100 µg/mL (Escherichia coli; Dose 0.1 mg/ml): 16 mm; zone of inhibition at 100 µg/mL (Aerobacter aerogenes; Dose 0.1 mg/ml): 25 mm
9 | O=C1c2ccccc2-c2nn(CCO)c3ccc(NCCN4CCOCC4)c1c23 [Example 14, 2-(2-Hydroxyethyl)-5-[[2-(4-morpholinyl)ethyl]amino][1,9-cd]pyrazol-6(2H)-one] |  | 0 | 16 | 0 | 0 |  |  |  |  | 16 |  |  |  |  | 
